Patent publication US12077503B2, “Substituted cyclic amides and their use as herbicides” (FMC CORPORATION, priority 2015, dated 2024)

Tests used:
Type in all cases: in vivo
[1] = system: barnyardgrass (Echinochloa crus-galli); assay: Test G Pre-Emergence Protocol; conditions: Echinochloa crus-galli, pre-emergence, 312 h, evaluated after 13 days; for pest or weed control at 15.625 g/ha: 15.625 g ai/ha, read-out: Barnyard grass damage rating (100=total damage to plant; 0=no damage to plant); for pest or weed control at 62.5 g/ha: 62.5 g ai/ha, 100=total damage to plant, 0=no damage to plant, read-out: plant damage rating, Barnyardgrass; for pest or weed control at 250 g/ha: 250 g ai/ha, read-out: Barnyardgrass damage rating (100=total damage to plant; 0=no damage to plant)
Outline: (§1)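 Herbicidal effect was rated 13 days post-application on a scale where 100 equals total damage. Spraying took place the day after sowing, using 15.625, 62.5 or 250 g/ha of compound in a 50:50 acetone/water solution with 0.5% Tween 20.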

[2] = system: corn (Zea mays); assay: Test G Pre-Emergence Protocol; conditions: Zea mays, pre-emergence, 312 h, evaluated after 13 days; for plant injury at 15.625 g/ha: 15.625 g ai/ha; for plant injury at 15.625 g/ha / plant injury at 250 g/ha: read-out: Corn damage rating (100=total damage to plant; 0=no damage to plant); for plant injury at 62.5 g/ha: 62.5 g ai/ha, 100=total damage to plant, 0=no damage to plant, read-out: plant damage rating, Corn; for plant injury at 250 g/ha: 250 g ai/ha
Outline: as §1

[3] = system: giant foxtail (Setaria faberi); assay: Test G Pre-Emergence Protocol; conditions: Setaria faberi, pre-emergence, 312 h, evaluated after 13 days; for pest or weed control at 15.625 g/ha: 15.625 g ai/ha; for pest or weed control at 15.625 g/ha / pest or weed control at 250 g/ha: read-out: Foxtail, Giant damage rating (100=total damage to plant; 0=no damage to plant); for pest or weed control at 62.5 g/ha: 62.5 g ai/ha, 100=total damage to plant, 0=no damage to plant, read-out: plant damage rating, Foxtail, Giant; for pest or weed control at 250 g/ha: 250 g ai/ha
Outline: as §1

[4] = system: ivy-leaved morning glory (Ipomoea hederacea); assay: Test G Pre-Emergence Protocol; conditions: Ipomoea, pre-emergence, 312 h, evaluated after 13 days; for pest or weed control at 15.625 g/ha: 15.625 g ai/ha, read-out: Morning-glory, Ivy-leaved damage rating (100=total damage to plant; 0=no damage to plant); for pest or weed control at 250 g/ha: 250 g ai/ha, read-out: Morningglory, Ivy-leaved damage rating (100=total damage to plant; 0=no damage to plant)
Outline: as §1

[5] = system: redroot pigweed (Amaranthus retroflexus); assay: Test G Pre-Emergence Protocol; conditions: Amaranthus retroflexus, pre-emergence, 312 h, evaluated after 13 days; for pest or weed control at 15.625 g/ha: 15.625 g ai/ha; for pest or weed control at 15.625 g/ha / pest or weed control at 250 g/ha: read-out: Pigweed, Redroot damage rating (100=total damage to plant; 0=no damage to plant); for pest or weed control at 62.5 g/ha: 62.5 g ai/ha, 100=total damage to plant, 0=no damage to plant, read-out: plant damage rating, Pigweed, Redroot; for pest or weed control at 250 g/ha: 250 g ai/ha
Outline: as §1

[6] = system: velvetleaf (Abutilon theophrasti); assay: Test G Pre-Emergence Protocol; conditions: Abutilon theophrasti, pre-emergence, 312 h, evaluated after 13 days; for pest or weed control at 15.625 g/ha: 15.625 g ai/ha; for pest or weed control at 15.625 g/ha / pest or weed control at 250 g/ha: read-out: Velvetleaf damage rating (100=total damage to plant; 0=no damage to plant); for pest or weed control at 62.5 g/ha: 62.5 g ai/ha, 100=total damage to plant, 0=no damage to plant, read-out: plant damage rating, Velvetleaf; for pest or weed control at 250 g/ha: 250 g ai/ha
Outline: as §1

[7] = system: barnyardgrass (Echinochloa crus-galli); assay: Test G Post-Emergence Protocol; conditions: Echinochloa crus-galli, post-emergence, 312 h; for pest or weed control at 15.625 g/ha: 15.625 g ai/ha, evaluated after 13 days (100=total damage to plant; 0=no damage to plant), read-out: Barnyardgrass damage rating; for pest or weed control at 62.5 g/ha: 62.5 g ai/ha, read-out: Barnyardgrass damage rating (100=total damage to plant; 0=no damage to plant); for pest or weed control at 62.5 g/ha / pest or weed control at 250 g/ha: evaluated after 13 days; for pest or weed control at 250 g/ha: 250 g ai/ha, read-out: damage to plant, Barnyardgrass (100=total damage to plant; 0=no damage to plant)
Outline: (§2)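 A glasshouse post-emergence test: 8-day-old plants sprayed at 15.625, 62.5 or 250 g/ha, then grown at 24/16 °C day/night with 14 h light and 65% humidity. Damage rated 13 days later, 0–100.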

[8] = system: corn (Zea mays); assay: Test G Post-Emergence Protocol; conditions: Zea mays, post-emergence, 312 h; for plant injury at 15.625 g/ha: 15.625 g ai/ha, evaluated after 13 days (100=total damage to plant; 0=no damage to plant), read-out: Corn damage rating; for plant injury at 62.5 g/ha: 62.5 g ai/ha, read-out: Corn damage rating (100=total damage to plant; 0=no damage to plant); for plant injury at 62.5 g/ha / plant injury at 250 g/ha: evaluated after 13 days; for plant injury at 250 g/ha: 250 g ai/ha, read-out: damage to plant, Corn (100=total damage to plant; 0=no damage to plant)
Outline: as §2

[9] = system: giant foxtail (Setaria faberi); assay: Test G Post-Emergence Protocol; conditions: Setaria faberi, post-emergence, 312 h; for pest or weed control at 15.625 g/ha: 15.625 g ai/ha, evaluated after 13 days (100=total damage to plant; 0=no damage to plant), read-out: Foxtail, Giant damage rating; for pest or weed control at 62.5 g/ha: 62.5 g ai/ha, read-out: Foxtail, Giant damage rating (100=total damage to plant; 0=no damage to plant); for pest or weed control at 62.5 g/ha / pest or weed control at 250 g/ha: evaluated after 13 days; for pest or weed control at 250 g/ha: 250 g ai/ha, read-out: damage to plant, Foxtail, Giant (100=total damage to plant; 0=no damage to plant)
Outline: as §2

[10] = system: ivy-leaved morning glory (Ipomoea hederacea); assay: Test G Post-Emergence Protocol; conditions: Ipomoea, post-emergence, 312 h; for pest or weed control at 15.625 g/ha: 15.625 g ai/ha, evaluated after 13 days (100=total damage to plant; 0=no damage to plant), read-out: Morningglory, Ivy-leaved damage rating; for pest or weed control at 62.5 g/ha: 62.5 g ai/ha, read-out: Morningglory, Ivy-leaved damage rating (100=total damage to plant; 0=no damage to plant); for pest or weed control at 62.5 g/ha / pest or weed control at 250 g/ha: evaluated after 13 days; for pest or weed control at 250 g/ha: 250 g ai/ha, read-out: damage to plant, Morningglory, Ivy-leaved (100=total damage to plant; 0=no damage to plant)
Outline: as §2

[11] = system: redroot pigweed (Amaranthus retroflexus); assay: Test G Post-Emergence Protocol; conditions: Amaranthus retroflexus, post-emergence, 312 h; for pest or weed control at 15.625 g/ha: 15.625 g ai/ha, evaluated after 13 days (100=total damage to plant; 0=no damage to plant), read-out: Pigweed, Redroot damage rating; for pest or weed control at 62.5 g/ha: 62.5 g ai/ha, read-out: Pigweed, Redroot damage rating (100=total damage to plant; 0=no damage to plant); for pest or weed control at 62.5 g/ha / pest or weed control at 250 g/ha: evaluated after 13 days; for pest or weed control at 250 g/ha: 250 g ai/ha, read-out: damage to plant, Pigweed, Redroot (100=total damage to plant; 0=no damage to plant)
Outline: as §2

[12] = system: velvetleaf (Abutilon theophrasti); assay: Test G Post-Emergence Protocol; conditions: Abutilon theophrasti, post-emergence, 312 h; for pest or weed control at 15.625 g/ha: 15.625 g ai/ha, evaluated after 13 days (100=total damage to plant; 0=no damage to plant), read-out: Velvetleaf damage rating; for pest or weed control at 62.5 g/ha: 62.5 g ai/ha, read-out: Velvetleaf damage rating (100=total damage to plant; 0=no damage to plant); for pest or weed control at 62.5 g/ha / pest or weed control at 250 g/ha: evaluated after 13 days; for pest or weed control at 250 g/ha: 250 g ai/ha, read-out: damage to plant, Velvetleaf (100=total damage to plant; 0=no damage to plant)
Outline: as §2

Row | Structure (SMILES) | pest or weed control at 15.625 g/ha [1] [%] | pest or weed control at 62.5 g/ha [1] [%] | pest or weed control at 250 g/ha [1] [%] | plant injury at 15.625 g/ha [2] [%] | plant injury at 62.5 g/ha [2] [%] | plant injury at 250 g/ha [2] [%] | pest or weed control at 15.625 g/ha [3] [%] | pest or weed control at 62.5 g/ha [3] [%] | pest or weed control at 250 g/ha [3] [%] | pest or weed control at 15.625 g/ha [4] [%] | pest or weed control at 250 g/ha [4] [%] | pest or weed control at 15.625 g/ha [5] [%] | pest or weed control at 62.5 g/ha [5] [%] | pest or weed control at 250 g/ha [5] [%] | pest or weed control at 15.625 g/ha [6] [%] | pest or weed control at 62.5 g/ha [6] [%] | pest or weed control at 250 g/ha [6] [%] | pest or weed control at 15.625 g/ha [7] [%] | pest or weed control at 62.5 g/ha [7] [%] | pest or weed control at 250 g/ha [7] [%] | other results
1 | CSc1nc(NC(=O)[C@@H]2C(=O)N(C)C[C@H]2c2ccc(C(F)(F)F)cc2)n[nH]1 (racemic) [Compound 1539] | 0 | 10 | 20 | 0 | 0 | 0 | 0 | 10 | 20 | 0 | 0 | 0 | 0 | 0 | 0 | 0 | 0 | 0 | 0 | 0 | plant injury at 15.625 g/ha [8]: 0%; plant injury at 62.5 g/ha [8]: 0%; plant injury at 250 g/ha [8]: 0%; pest or weed control at 15.625 g/ha [9]: 0%; pest or weed control at 62.5 g/ha [9]: 0%; pest or weed control at 250 g/ha [9]: 0%; pest or weed control at 15.625 g/ha [10]: 0%; pest or weed control at 62.5 g/ha [10]: 0%; pest or weed control at 250 g/ha [10]: 0%; pest or weed control at 15.625 g/ha [11]: 0%; pest or weed control at 62.5 g/ha [11]: 0%; pest or weed control at 250 g/ha [11]: 0%; pest or weed control at 15.625 g/ha [12]: 0%; pest or weed control at 62.5 g/ha [12]: 0%; pest or weed control at 250 g/ha [12]: 0%
2 | Cc1cc(NC(=O)[C@@H]2C(=O)N(C)C[C@H]2c2ccc(C(F)(F)F)cc2)on1 (racemic) [Compound 1579] | 0 | 0 | 0 | 0 | 0 | 0 | 0 | 0 | 0 | 0 | 0 | 0 | 0 | 0 | 0 | 0 | 0 | 0 | 10 | 10 | pest or weed control at 62.5 g/ha ([4]; 62.5 g ai/ha, 100=total damage to plant, 0=no damage to plant, read-out: plant damage rating, Morningglory, Ivy-leaved): 0%; plant injury at 15.625 g/ha [8]: 0%; plant injury at 62.5 g/ha [8]: 0%; plant injury at 250 g/ha [8]: 0%; pest or weed control at 15.625 g/ha [9]: 0%; pest or weed control at 62.5 g/ha [9]: 0%; pest or weed control at 250 g/ha [9]: 0%; pest or weed control at 15.625 g/ha [10]: 0%; pest or weed control at 62.5 g/ha [10]: 0%; pest or weed control at 250 g/ha [10]: 0%; pest or weed control at 15.625 g/ha [11]: 0%; pest or weed control at 62.5 g/ha [11]: 0%; pest or weed control at 250 g/ha [11]: 0%; pest or weed control at 15.625 g/ha [12]: 0%; pest or weed control at 62.5 g/ha [12]: 0%; pest or weed control at 250 g/ha [12]: 0%
